# Measurements as given in US20050214387A1, “Low-dose potassium supplementation for the prevention and treatment of hypertension” (priority 2002, published 2005).
# “And” between values parts separate entries of the source, which are not always exact repeats. Identical values can stand only once.
# How the values were obtained:
# hypertensive patients = conditions: 18 hypertensive patients, daily supplement of 48 mmol; cited from earlier work
# [1] = system: apparently healthy volunteers; experiment: Low-dose potassium trial: compliance and side effects; format: in vivo, human; conditions: one person receiving potassium
# Method: The patients and the investigator were unaware of the type of supplement being given, other than that it was a nutrient. The placebo and potassium chloride pills were provided in identical containers. The adherence of the volunteers to the treatment was assessed at each visit by questioning, and by counting the pills returned.
# The baseline blood pressure used for the statistical analysis was the average of the measurements taken during the first week period. For Interval level variables (e.g. BP), differences between groups were tested using the Two-Sample t test while differences within each group were tested with the Paired t test. For Ordinal level variables (e.g. compliance) these tests were performed using the Mann-Whitney Test and the Wilcoxon Signed Rank Test for comparisons between and within the two groups respectively. The Chi-Squared Test was used to assess the significance of differences between the groups for Nominal level variables (e.g. gender).
# [2] = system: apparently healthy volunteers; experiment: Double-blind placebo-controlled low-dose potassium trial: blood pressure (MAP, SBP, DBP); format: in vivo, human; conditions: for DBP Week 3 − Week 0 mean difference / MAP Week 3 − Week 0 mean difference / SBP Week 3 − Week 0 mean difference: change Week 0 to 3, n = 30, mean ± SEM; for DBP Week 6 − Week 0 mean difference / MAP Week 6 − Week 0 mean difference / SBP Week 6 − Week 0 mean difference: change Week 0 to 6, n = 30, mean ± SEM
# Method: A double-blind, placebo controlled trial on 59 volunteers, randomly assigned to receive 24 mmol/d of slow release potassium chloride (n=30) or a placebo (n=29) was conducted. Measures of BP, anthropometric characteristics and urine analysis for electrolytes were recorded during a one-week baseline period. Supplementation was for six weeks during which BP and changes in weight were assessed and a second 24-hour urine collection made. The primary outcome was the change in mean arterial pressure (MAP). Systolic (SBP) and diastolic (DBP) blood pressure were secondary outcomes.
# The study took the form of a randomized double-blind, placebo-controlled trial with the aim of testing the effect of potassium supplementation on BP. […] The study consisted of a baseline period of one week during which blood pressure and body weight were measured at the beginning and end, and a 24-hour urine sample was collected to estimate electrolyte intake. During a six weeks intervention phase, BP and body weight were measured at three-week intervals, and a second 24-hour urine sample was collected during the final week. Potassium chloride was administered as one slow release tablet containing 8 mmol of potassium chloride (Slow-K Tablets 600 mg kindly supplied by Alliance Pharmaceuticals Ltd, Avonbridge House, Chippenham, Wiltshire SN15 2BB, UK) three times a day with meals. The placebo contained sorbitol and fructose.
# Each BP measurement was performed following current recommendations (Beevers et al., ABC of hypertension, 4th Ed., London, BMJ Publishing Group, 2000). BP was assessed at the same time of day (within 30 minutes) for every appointment to avoid the influence of circadian variations in BP (Id.), at approximately the same heart rate, and by the same observer using the same instruments throughout the study for each measurement. The subjects were instructed not to smoke, eat or drink during the 30 minutes before each appointment They were also given verbal and written notice to avoid exercising 30 minutes before the appointment, to come to the appointment with an empty bladder and to maintain strictly their usual habits on the day of the appointment (coffee, tea, meals consumed at the same time of the day). BP measurements were performed after the subjects had rested quietly for at least five minutes in the seated position. Two different cuffs (35 cm and 42 cm) were used depending on the arm circumference. At each visit at least three readings for systolic (SBP) and diastolic (DBP) BP and heart rate were taken at two-minute intervals in the left arm using a semi-automated device employing the oscillometric method (Omron M5-I, Omron Healthcare Europe B.V., Hoofddorp, The Netherlands). The first readings of each assessment were ignored to avoid results affected by the defense reaction (Beevers et al., ABC of hypertension, 4th Ed., London, BMJ Publishing Group, 2000) and the last two readings were averaged and recorded. The readings were thereafter confirmed after a two-minute interval with a Hawksley random zero sphygmomanometer (Hawksley and Sons, Lancing, Sussex, UK) because automatic devices may be unsuitable for some individuals for which there is no obvious reason (Id.).
# SBP was measured as the point of appearance of the Korotkoff sounds (Phase I) and DBP was measured as the point of complete disappearance of the Korotkoff sounds (Phase V) according to the guidelines given by the British Hypertension Society (Id). All recordings from the semi-automated device agreed well with the random zero sphygmomanometer. Subjects with either SBP≧140 mm Hg or DBP level≧90 mm Hg were considered to be hypertensive.
# Mean Arterial Pressure (MAP) was computed as MAP=(2 DBP+SBP)/3 (Vander et al., Human Physiology, The Mechanism of Body Function, 8th Ed., McGraw-Hill, New York, 2000, pp. 407-16 and 626-34, and Wilson et al., Hypertension, 1999, 34, 181-6). […]
# [3] = 24 mmol/d slow release potassium chloride, n = 30, mean ± SEM
# [4] = Week 0 to 6, listed as potassium
# [5] = after six weeks of supplementation, versus placebo
# [6] = within potassium group, listed as potassium
# [7] = within potassium group, change Week 3 to 6, n = 30, mean ± SEM
compound,measurement,setting,value
"[Cl-].[K+] [Potassium, potassium chloride]",effect on BP,hypertensive patients,lower BP
same,side effects reported,[1],increase in appetite
same,DBP Week 3,[2]; [3],72.95 ± 2.08 mm Hg
same,DBP Week 6,[2]; [3],71.47 ± 1.90 mm Hg
same,MAP Week 3,[2]; [3],87.67 ± 2.20 mm Hg
same,MAP Week 6,[2]; [3],84.97 ± 2.06 mm Hg
same,SBP Week 3,[2]; [3],117.17 ± 2.71 mm Hg
same,SBP Week 6,[2]; [3],111.93 ± 2.52 mm Hg
same,DBP Potassium − placebo Mean Difference (95% CI),[2]; Week 0 to 3,"−4.11 (−6.09, −2.13)^4 mm Hg"
same,MAP Potassium − placebo Mean Difference (95% CI),[2]; Week 0 to 3,"−3.34 (−5.22, −1.47)^3 mm Hg"
same,SBP Potassium − placebo Mean Difference (95% CI),[2]; Week 0 to 3,"−1.28 (−4.21, 1.65) mm Hg"
same,DBP Potassium − placebo Mean Difference (95% CI),[2]; Week 0 to 6,"−6.46 (−8.74, −4.19)^4 mm Hg"
same,MAP Potassium − placebo Mean Difference (95% CI),[2]; Week 0 to 6,"−7.01 (−9.12, −4.89)^4 mm Hg"
same,SBP Potassium − placebo Mean Difference (95% CI),[2]; Week 0 to 6,"−7.60 (−10.46, −4.73)^4 mm Hg"
same,DBP Potassium − placebo Mean Difference (95% CI),[2]; [4],marked and significant decrease
same,MAP Potassium − placebo Mean Difference (95% CI),[2]; [4],marked and significant decrease
same,SBP Potassium − placebo Mean Difference (95% CI),[2]; [4],marked and significant decrease
same,DBP Potassium − placebo Mean Difference (95% CI),[2]; Week 3 to 6,"−2.35 (−4.70, −0.00)^5 mm Hg"
same,MAP Potassium − placebo Mean Difference (95% CI),[2]; Week 3 to 6,"−3.66 (−5.84, −1.49)^3 mm Hg"
same,SBP Potassium − placebo Mean Difference (95% CI),[2]; Week 3 to 6,"−6.32 (−8.84, −3.79)^4 mm Hg"
same,reduction in DBP,[2]; [5],6.46 mm Hg
same,reduction in MAP,[2]; [5],7.01 mm Hg
same,reduction in SBP,[2]; [5],7.60 mm Hg
same,DBP Week 3 − Week 0 mean difference,[2]; within potassium group,−2.53 ± 0.73^6 mm Hg and −2.53 ± 0.73 mm Hg
same,MAP Week 3 − Week 0 mean difference,[2]; within potassium group,−2.21 ± 0.72^3 mm Hg and −2.21 ± 0.72^2 mm Hg
same,SBP Week 3 − Week 0 mean difference,[2]; within potassium group,−0.98 ± 1.20 mm Hg
same,DBP Week 3 − Week 0 mean difference,[2]; [6],significant decrease
same,MAP Week 3 − Week 0 mean difference,[2]; [6],significant decrease
same,SBP Week 3 − Week 0 mean difference,[2]; [6],not significantly reduced
same,DBP Week 6 − Week 0 mean difference,[2]; within potassium group,−4.02 ± 0.87^5 mm Hg and −4.02 ± 0.87 mm Hg
same,MAP Week 6 − Week 0 mean difference,[2]; within potassium group,−4.91 ± 0.80^5 mm Hg and −4.91 ± 0.79 mm Hg
same,SBP Week 6 − Week 0 mean difference,[2]; within potassium group,−6.22 ± 1.07^5 mm Hg and −6.22 ± 1.10 mm Hg
same,DBP Week 6 − Week 0 mean difference,[2]; [6],decreased significantly
same,MAP Week 6 − Week 0 mean difference,[2]; [6],decreased significantly
same,SBP Week 6 − Week 0 mean difference,[2]; [6],decreased significantly
same,DBP Week 6 − Week 3 mean difference,[2]; [7],−1.48 ± 0.98 mm Hg and −1.48 ± 0.97 mm Hg
same,MAP Week 6 − Week 3 mean difference,[2]; [7],−2.70 ± 0.91^4 mm Hg and −2.70 ± 0.91 mm Hg
same,SBP Week 6 − Week 3 mean difference,[2]; [7],−5.23 ± 1.03^5 mm Hg and −5.23 ± 1.00 mm Hg
same,SBP Week 6 − Week 3 mean difference,"[2]; within potassium group, change Week 3 to 6, n = 30, mean ± SEM, listed as potassium",decreased significantly
